Among the test systems are 786-0; ACHN; CAKI-1; HCT-116; HOP-62; HOP-92; IGROV-1; K562; NCI-H23; NCI-H460; NCI/ADR-RES; PC-3; RPMI-8226; SF-295; SK-OV-3; SW-620; T47D; UACC-257; UACC-62; UO-31.
Experiment in all cases: NCI anticancer screen, dose series, 48 h

We go through seven compounds from ChEMBL document CHEMBL1201862, “PubChem BioAssay data set” (2004).

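Grown in 96-well plates, cells were treated for 48 hours with each compound at five concentrations. Insufficient inhibition: endpoint recorded as highest concentration tested. GI50 marks 50% less growth.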 Active and inactive are the calls of the source. Cut-off read from the data, not from the text of the source: active = GI50 up to about 1.1 µM and inactive = higher.

With `CCCCc1ccc(N2C(=O)c3cc([N+](=O)[O-])cnc3S2(=O)=O)cc1`, the GI50 in the test with 786-0 is > 100 µM (inactive); in the test with ACHN it was > 100 µM (inactive); with CAKI-1, > 100 µM (inactive); with HCT-116, > 100 µM (inactive); in the test with HOP-62, > 100 µM (inactive); in the test on HOP-92 it was 0.424 µM (active). In addition, the GI50 with IGROV-1 was > 100 µM (inactive); with K562 it was > 100 µM (inactive); in the test on NCI-H23, > 100 µM (inactive); with NCI-H460, > 100 µM (inactive); in the test with NCI/ADR-RES it was 25.2 µM (inactive); with PC-3 it was > 100 µM (inactive). Further, the GI50 with RPMI-8226 is > 100 µM (inactive); with SF-295, 47.2 µM (inactive); with SK-OV-3, > 100 µM (inactive); in the test with SW-620, > 100 µM (inactive); in the test with T47D it was > 100 µM (inactive); in the test on UACC-257 it was > 100 µM (inactive). Besides, the GI50 with UACC-62 and in the test on UO-31 was > 100 µM (inactive) each time.

Take `O=C1c2cccc3cccc(c23)C(=O)N1CCCNCCCCNCCCN1C(=O)c2cccc3cccc(c23)C1=O`: the GI50 is 0.0311 µM (active) in the test on 786-0; 0.757 µM (active) with ACHN; 0.857 µM (active) in the test on CAKI-1; 0.0738 µM (active) in the test on HCT-116; 0.205 µM (active) in the test on HOP-62; 0.18 µM (active) in the test on HOP-92. Further, the GI50 with IGROV-1 was 0.0697 µM (active); with K562 it was 0.0226 µM (active); with NCI-H23 it was 0.0944 µM (active); in the test with NCI-H460 it was 0.0194 µM (active); in the test with NCI/ADR-RES, 14.5 µM (inactive); with PC-3, 0.17 µM (active). Further, the GI50 in the test with RPMI-8226 is < 0.0205 µM (active); in the test with SF-295, 0.658 µM (active); in the test with SK-OV-3, 0.982 µM (active); with SW-620 it was 0.0612 µM (active); in the test with T47D it was 0.515 µM (active); in the test with UACC-257, 0.61 µM (active). Besides, the GI50 in the test on UACC-62 was 0.337 µM (active); with UO-31, 2.26 µM (inactive).

For `CC(C)C1/C(=N/O)CC(c2ccccc2)N(N=O)C1c1ccccc1` (stereo not given), the GI50 was 31.1 µM (inactive) in the test with 786-0; 36.4 µM (inactive) with ACHN; 19.2 µM (inactive) with CAKI-1; 28.5 µM (inactive) with HCT-116; 72.6 µM (inactive) in the test with HOP-62; 33.7 µM (inactive) in the test on HOP-92. The GI50 was 68.2 µM (inactive) with IGROV-1; 35.5 µM (inactive) in the test with K562; 47.1 µM (inactive) in the test with NCI-H23; 24.7 µM (inactive) in the test on NCI-H460; 35.1 µM (inactive) with NCI/ADR-RES; 33.3 µM (inactive) in the test with PC-3. For the same compound, the GI50 in the test with RPMI-8226 is 45.4 µM (inactive); with SF-295, 30.5 µM (inactive); in the test with SK-OV-3, 24.8 µM (inactive); with SW-620 it was 40.6 µM (inactive); in the test with T47D, 39.6 µM (inactive); in the test on UACC-257 it was 40.7 µM (inactive). For the same compound, the GI50 is 19.7 µM (inactive) with UACC-62 and 33.3 µM (inactive) with UO-31.

Turning to `CCOC(=O)/C(C#N)=C\c1ccc(N(CCC(=O)O)CCC(=O)O)c(I)c1`, the GI50 in the test with 786-0, in the test on ACHN, in the test on CAKI-1, in the test with HCT-116, in the test with HOP-62 and in the test on HOP-92 was > 10 µM (inactive) each time. Moreover, the GI50 in the test on IGROV-1, in the test with K562, in the test with NCI-H23, in the test on NCI-H460, in the test on NCI/ADR-RES and with PC-3 was > 10 µM (inactive) in each case. Further, the GI50 in the test on RPMI-8226, in the test with SF-295, in the test with SK-OV-3, with SW-620, with T47D and in the test with UACC-257 was > 10 µM (inactive) in each case. For the same compound, the GI50 with UACC-62 and in the test with UO-31 was > 10 µM (inactive) in each case.

As to `N#CC1(C#N)C(c2ccccc2)C=CC(c2ccc([N+](=O)[O-])cc2)C1(C#N)C#N` (stereo not given), the GI50 in the test with 786-0 was 2.67 µM (inactive); in the test on ACHN, 3.43 µM (inactive); in the test on CAKI-1 it was 3.66 µM (inactive); with HCT-116, 3.8 µM (inactive); with HOP-62, 17.3 µM (inactive); in the test with HOP-92, 3.43 µM (inactive). Further, the GI50 with IGROV-1 is 14 µM (inactive); in the test on K562, 3.01 µM (inactive); with NCI-H23, 12.4 µM (inactive); in the test on NCI-H460, 30.3 µM (inactive); in the test with NCI/ADR-RES it was 8.38 µM (inactive); in the test on PC-3 it was 12.2 µM (inactive). Further, the GI50 in the test on RPMI-8226 is 2.91 µM (inactive); in the test on SF-295, 18.5 µM (inactive); in the test with SK-OV-3, 18.5 µM (inactive); in the test on SW-620, 3.66 µM (inactive); with T47D, 2.61 µM (inactive); in the test on UACC-257 it was 16.3 µM (inactive). The GI50 in the test with UACC-62 was 12 µM (inactive); in the test on UO-31, 13.7 µM (inactive).

For the compound `COC(=O)C1Cc2c([nH]c3ccccc23)-c2[nH]c3ccccc3c2CC(NC(C)=O)C(=O)NCC(=O)N1` (stereo not given), the GI50 was > 100 µM (inactive) in the test on 786-0; > 100 µM (inactive) with ACHN; > 100 µM (inactive) with CAKI-1; > 100 µM (inactive) in the test with HCT-116; > 100 µM (inactive) with HOP-62; 77.4 µM (inactive) in the test with HOP-92. In addition, the GI50 in the test on IGROV-1 was 0.914 µM (active); with K562 it was > 100 µM (inactive); in the test with NCI-H23, > 100 µM (inactive); in the test with NCI-H460, > 100 µM (inactive); in the test on NCI/ADR-RES it was > 100 µM (inactive); in the test on PC-3, > 100 µM (inactive). Further, the GI50 with RPMI-8226, with SF-295, in the test with SK-OV-3, with SW-620, with T47D and with UACC-257 was > 100 µM (inactive) in each case. Also, the GI50 with UACC-62 and in the test on UO-31 was > 100 µM (inactive) each time.

Consider `COC(O)C12OC3CO[Si](C(C)C)(C(C)C)O[Si](C(C)C)(C(C)C)OC3C1Oc1nc(=O)ccn12` (stereo not given), for which the GI50 in the test on 786-0 is 15.2 µM (inactive); in the test with ACHN it was 14.1 µM (inactive); in the test on CAKI-1 it was 18.2 µM (inactive); in the test with HCT-116, 8.61 µM (inactive); in the test on HOP-62, 13.7 µM (inactive); in the test with HOP-92, 10.1 µM (inactive). The GI50 in the test on IGROV-1 is 12.3 µM (inactive); with K562, 1.52 µM (inactive); in the test with NCI-H23 it was 14.3 µM (inactive); in the test with NCI-H460, 11.3 µM (inactive); with NCI/ADR-RES it was 21.6 µM (inactive); in the test with PC-3 it was 4.7 µM (inactive). The GI50 in the test with RPMI-8226 was 1 µM (active); in the test on SF-295, 12.2 µM (inactive); in the test on SK-OV-3, 17.7 µM (inactive); with SW-620 it was > 36.8 µM (inactive); with T47D, 7.69 µM (inactive); in the test with UACC-257, 11.8 µM (inactive). The GI50 in the test on UACC-62 is 11 µM (inactive); in the test on UO-31 it was 15.8 µM (inactive).
